{
  "source": "paper PMC8071972",
  "about": "“Urinary L-erythro-β-hydroxyasparagine—a novel serine racemase inhibitor and substrate of the Zn^2+-dependent D-serine dehydratase” (Bioscience Reports, 2021)",
  "format_in_all_cases": "biochemical",
  "key": {"[1]": {"target": "T1, serine racemase (mouse SR) (Mus musculus, UniProt Q9QZX7)", "T1 construct": "gene Srr; N-terminal His-tag, recombinant from E. coli", "T1 sequence (Q9QZX7 1-339)": "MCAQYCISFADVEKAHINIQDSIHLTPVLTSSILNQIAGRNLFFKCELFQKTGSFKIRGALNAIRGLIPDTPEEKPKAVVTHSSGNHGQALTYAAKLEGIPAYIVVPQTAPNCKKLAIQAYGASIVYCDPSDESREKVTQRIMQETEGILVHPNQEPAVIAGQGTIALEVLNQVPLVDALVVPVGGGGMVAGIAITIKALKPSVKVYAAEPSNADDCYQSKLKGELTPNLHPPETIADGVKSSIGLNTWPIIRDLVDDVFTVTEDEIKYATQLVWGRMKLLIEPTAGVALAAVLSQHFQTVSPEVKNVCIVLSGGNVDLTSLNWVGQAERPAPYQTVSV", "test": "enzymatic resolution of racemic β-EHAsp by recombinant enzyme"}, "[2]": {"target": "T2, asparaginase (AnsA; printed AsnA in the results, asparaginase 1) (Escherichia coli, UniProt P0A962)", "T2 construct": "N-terminal His-tagged protein", "T2 sequence (P0A962 1-338)": "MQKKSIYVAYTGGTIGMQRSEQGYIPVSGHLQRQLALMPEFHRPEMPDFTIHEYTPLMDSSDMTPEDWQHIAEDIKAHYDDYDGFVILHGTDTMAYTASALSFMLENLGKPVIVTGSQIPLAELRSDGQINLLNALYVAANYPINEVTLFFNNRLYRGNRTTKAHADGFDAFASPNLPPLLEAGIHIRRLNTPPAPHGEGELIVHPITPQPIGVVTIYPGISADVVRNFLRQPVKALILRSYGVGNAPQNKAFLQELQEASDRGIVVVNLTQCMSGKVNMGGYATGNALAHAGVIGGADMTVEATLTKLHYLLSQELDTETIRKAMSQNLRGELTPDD", "test": "HPLC of urinary amino acids treated with purified enzyme"}, "[3]": {"target": "T3, D-serine dehydratase (Dsd1p) (Saccharomyces cerevisiae, UniProt P53095)", "T3 construct": "gene DSD1; N-terminal His-tagged protein", "T3 sequence (P53095 1-428)": "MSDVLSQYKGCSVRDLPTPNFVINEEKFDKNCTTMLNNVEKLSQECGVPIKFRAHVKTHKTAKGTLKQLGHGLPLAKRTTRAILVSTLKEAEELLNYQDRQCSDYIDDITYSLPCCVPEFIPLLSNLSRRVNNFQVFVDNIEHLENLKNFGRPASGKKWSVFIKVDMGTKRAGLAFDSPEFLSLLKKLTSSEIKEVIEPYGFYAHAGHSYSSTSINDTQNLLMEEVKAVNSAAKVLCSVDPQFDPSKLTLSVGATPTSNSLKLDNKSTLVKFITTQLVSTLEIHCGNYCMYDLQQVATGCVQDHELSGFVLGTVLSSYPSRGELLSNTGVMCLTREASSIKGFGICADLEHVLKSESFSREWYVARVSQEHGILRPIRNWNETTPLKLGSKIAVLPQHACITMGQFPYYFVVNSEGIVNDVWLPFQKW", "test": "HPLC and LC-ESI-MS of urinary amino acid degradation by purified enzyme"}, "[4]": {"target": "T1, serine racemase (mouse SR)", "test": "LDH-coupled L-Ser dehydration assay, steady-state kinetics"}, "[5]": {"target": "T4, asparagine synthase (AsnA) (Escherichia coli, UniProt P00963)", "T4 construct": "N-terminal His-tagged protein", "T4 sequence (P00963 1-330)": "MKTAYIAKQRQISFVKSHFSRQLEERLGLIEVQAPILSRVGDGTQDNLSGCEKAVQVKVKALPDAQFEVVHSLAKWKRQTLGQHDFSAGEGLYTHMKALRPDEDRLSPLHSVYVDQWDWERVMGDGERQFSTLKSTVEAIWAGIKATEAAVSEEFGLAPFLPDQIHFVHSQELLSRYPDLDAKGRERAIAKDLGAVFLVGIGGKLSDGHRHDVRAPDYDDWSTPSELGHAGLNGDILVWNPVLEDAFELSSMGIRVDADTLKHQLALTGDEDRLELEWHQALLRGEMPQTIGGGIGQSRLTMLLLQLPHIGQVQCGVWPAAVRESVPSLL", "test": "preparative enzymatic amidation, HPLC"}},
  "data": [
    {"smiles": "N[C@@H](C(=O)O)[C@H](O)C(=O)O", "note": "(racemic) [D-β-EHAsp]", "values": [
      {"measurement": "enzymatic resolution of racemic β-EHAsp by recombinant enzyme", "setting": "[1]", "result": "could efficiently eliminate D-β-EHAsp from the racemic mixture"}
    ]},
    {"smiles": "NC(=O)[C@H](O)[C@H](N)C(=O)O", "note": "(stereo in doubt) [L-β-EHAsn, L-erythro-β-hydroxyasparagine]", "values": [
      {"measurement": "HPLC of urinary amino acids treated with purified enzyme", "setting": "[2]", "result": "Urinary β-OH-Asn could be converted into the corresponding isomer of β-hydroxy aspartate (β-OH-Asp) using the E. coli asparaginase"},
      {"measurement": "HPLC and LC-ESI-MS of urinary amino acid degradation by purified enzyme", "setting": "[3]", "result": "the urinary Dsd1p substrate was identified as the (2S, 3S)-isomer of β-OH-Asn (L-β-EHAsn)"},
      {"measurement": "Ki", "setting": "[4]", "result": "40 ± 6", "unit": "µM"}
    ]},
    {"smiles": "N[C@H](C(=O)O)[C@@H](O)C(=O)O", "note": "[L-β-EHAsp]", "values": [
      {"measurement": "preparative enzymatic amidation, HPLC", "setting": "[5]", "result": "L-β-EHAsp was further converted to L-β-EHAsn by the action of E. coli AsnA"}
    ]}
  ]
}
